Results: publication PMC11484861 (Nature Communications, 2024)
Ends that are not written are not given here.

Columns and labels:
GFP-SQSTM1 = GFP-SQSTM1 (Homo sapiens, UniProt Q13501); assay: biochemical; format: binding
TOMM22 level = format: cell-based, human; settings: for effects of SQSTM1 on TOMM22 degradation: PDPK1-KO HEK293T, even in the presence of PDPK1, Mdivi-1 2.5 μM, CQ 50 μM, wortmannin 5 μM, 4 h (Fig 2G)
[1] = tested on: SARS-CoV-2 M protein level; format: cell-based, human
IFNB1 mRNA expression [2] = format: cell-based, human; settings: HEK293T, presence vs absence of poly (I:C); P = 0.001 (Fig 6A)
binding of SQSTM1 to M = format: cell-based, human
IFNB1 mRNA expression [3] = format: cell-based, human
PEDV [4] = format: cell-based
[5] = tested on: binding of SQSTM1 to TOMM22; format: cell-based, human
mitophagy = format: cell-based, human
IFNB1 mRNA expression [6] = format: cell-based, human; remark: listed apart in the source
IFNB1 mRNA expression [7] = tested on: IFNB1 mRNA expression; design: species or system mice; settings: mouse, in vivo
MAVS level = format: cell-based, human
[8] = tested on: phosphorylation of SQSTM1 at T138; format: cell-based, human
PEDV [9] = format: cell-based; remark: listed apart in the source
[10] = biological target: GFP-PDPK1 (human (cloned from HEK293T cells)) (UniProt O15530); assay: MST
Sequence of GFP-PDPK1 (human (cloned from HEK293T cells)) (O15530 whole entry): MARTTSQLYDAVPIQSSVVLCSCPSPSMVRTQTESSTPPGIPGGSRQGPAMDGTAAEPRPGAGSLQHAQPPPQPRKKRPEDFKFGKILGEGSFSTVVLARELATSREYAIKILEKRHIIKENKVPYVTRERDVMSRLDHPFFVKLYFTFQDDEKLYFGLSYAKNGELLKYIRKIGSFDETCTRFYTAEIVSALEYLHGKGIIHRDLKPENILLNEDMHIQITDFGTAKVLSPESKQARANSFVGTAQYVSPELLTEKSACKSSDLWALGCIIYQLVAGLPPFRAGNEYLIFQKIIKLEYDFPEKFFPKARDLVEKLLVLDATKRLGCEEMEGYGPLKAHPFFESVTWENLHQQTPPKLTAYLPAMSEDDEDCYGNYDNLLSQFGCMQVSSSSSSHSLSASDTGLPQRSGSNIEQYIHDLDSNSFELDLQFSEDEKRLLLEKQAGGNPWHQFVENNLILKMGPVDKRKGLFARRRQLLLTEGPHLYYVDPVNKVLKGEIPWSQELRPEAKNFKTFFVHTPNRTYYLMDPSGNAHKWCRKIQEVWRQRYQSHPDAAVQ

Compound: SMWSFNPETN [M-CD]
- Kd (GFP-SQSTM1): 115 ± 28 nM

Compound: Mdivi-1
- effects of SQSTM1 on TOMM22 degradation (TOMM22 level): only blocked
- effects of SQSTM1 on M degradation [1]: not M degradation

Compound: poly (I:C)
- IFNB1 mRNA expression (IFNB1 mRNA expression [2]): substantially increased

Compound: NCC(=O)Nc1ccc(-n2nc(C(F)(F)F)cc2-c2ccc3c(ccc4ccccc43)c2)cc1 [OSU-03012]
- binding of SQSTM1 to M (binding of SQSTM1 to M): increased
- IFNB1 expression during PEDV infection in cells (IFNB1 mRNA expression [3]): restored
- PEDV replication / viral titer (TCID50) in cells (PEDV [4]): attenuated
- binding of SQSTM1 to TOMM22 [5]: decreased
- decrease in GFP fluorescence of RFP-GFP-Mito caused by SQSTM1 expression (mitophagy): reversed the decrease
- effect of M on the shift in the green signal to a red signal (RFP-GFP-Mito, mitophagy) (mitophagy): reversed
- IFNB1 expression during VSV-M infection in cells (IFNB1 mRNA expression [6]): restored
- levels of TOMM22 decreased by PM or M expression (TOMM22 level; Fig 5B): restored
- TOMM22 levels (TOMM22 level; SQSTM1-KO cells with SQSTM1 expression, compared with control group (Fig S2J)): restored
- IFNB1 expression in lungs of VSV-M-infected mice (IFNB1 mRNA expression [7]): restored
- levels of MAVS decreased by PM or M expression (MAVS level): restored
- M levels [1]: further decreased
- M/PM-induced phosphorylation of SQSTM1 at T138 [8]: inhibited
- phosphorylation of SQSTM1 at T138 [8]: blocked
- PEDV M protein expression during PEDV infection (PEDV [9]): reduced

Compound: unlabeled M-β3-5 (MST ligand) (from UniProt P0DTC5 1-222) (domain or fragment)
- Kd [10]: 71 nM

Compound: COC[C@H]1OC(=O)c2coc3c2[C@@]1(C)C1=C(C3=O)[C@@H]2CCC(=O)[C@@]2(C)C[C@H]1OC(C)=O [wortmannin]
- effects of SQSTM1 on TOMM22 degradation (TOMM22 level): completely abolished
- effects of SQSTM1 on M degradation [1]: completely abolished

Compound: CCN(CC)CCCC(C)Nc1ccnc2cc(Cl)ccc12 (stereo not drawn) [CQ, chloroquine]
- effects of SQSTM1 on TOMM22 degradation (TOMM22 level): completely abolished
- effects of SQSTM1 on M degradation [1]: completely abolished
